From US10117845B2, “Retinal derivatives and methods for the use thereof for the treatment of visual disorders” (University of Washington, priority 2004, dated 2018)

Experiments:
Lrat−/− mice [1] = assay: Chromophore levels in eyes of Lrat−/− mice after all-trans-retinoid isoforms or 9-cis-retinyl succinate (Example 4); assay type: in vivo, mouse; settings: 5 mg by oral gavage in canola oil (40 mg/ml), measured after 3 days; FIG. 6
Method: Levels of chromophore (opsin/retinal complexes) were measured in the eyes of mice after dosing with all-trans-retinoid isoforms or 9-cis-retinyl succinate. All-trans-retinyl-palmitate, all-trans-retinyl acetate, all-trans-retinal (vitamin A aldehyde), all-trans-retinol (vitamin A), all-trans-retinyl succinate and 9-cis-retinyl succinate were administered to Lrat−/− mice by oral gavage. Five milligrams of the retinoid isoforms or 9-cis-retinyl succinate were administered in 100% canola oil at a concentration of 40 mg/ml. After 3 days, chromophore levels (as all-trans-retinal oximes or 9-cis-retinal oximes) were determined as described previously. See Van Hooser et al., J. Biol. Chem. 277:19173-182 (2002); Van Hooser et al, Proc. Natl. Acad. Sci. USA 97:8623-28 (2000); Maeda et al., J. Neurochem. 85:944-56 (2003). All reactions involving retinoids were carried out under dim red light.

Lrat−/− mice [2] = assay: 9-cis-RAL oxime levels in eyes of Lrat−/− mice after single or multiple oral doses (Example 3); assay type: in vivo, mouse
Method: Levels of 9-cis-RAL oximes (measured as syn- and anti-9-cis-retinyl aldehyde) in the eyes of Lrat−/− mice after a single dose or multiple doses of 9-cis-retinyl-acetate (9-cis-R-Ac). Doses of 9-cis-R-Ac were administered to Lrat−/− mice by oral gavage in vegetable oil (100% canola oil) in a volume of 500 ill (2.5 mg/ml). The mice weighed about 30-50 g. After 3 days, 9-cis-RAL oximes levels were determined by HPLC. Briefly, all experimental procedures related to extraction, derivatization, and separation of retinoids from dissected mouse eyes were carried out as described previously. See Van Hooser et al., J. Biol. Chem. 277:19173-182 (2002); Van Hooser et al., Proc. Natl. Acad. Sci. USA 97:8623-28 (2000); Maeda et al., J. Neurochem. 85:944-56 (2003). All reactions involving retinoids were carried out under dim red light.
Referring to FIG. 5a, the level of 9-cis-RAL in Lrat−/− in mouse eyes after a varying dose of 9-cis-R-Ac is shown. Peaks were identified by retention time and UV spectra and compared to standards. The spike around 19 min resulted from changes in the solvent composition. Retinoid analysis was performed on an HP1100 HPLC equipped with a diode array detector and HP Chemstation (A.07.01) software, allowing identification of retinoid isomers according to their specific retention time and absorption maxima. […]

Lrat−/− mice [3] = assay: Bioavailability comparison of oral 9-cis-retinaldehyde and 9-cis-retinyl acetate, by chromophore levels in LRAT−/− mice (Example 5); assay type: in vivo, mouse; settings: low (10 μmoles) and high (15 μmoles) doses, effect more pronounced at low dose, FIG. 7
Method: A comparison of the bioavailability of orally delivered 9-cis-retinaldehyde and 9-cis-retinyl acetate in an LRAT−/− model. 9-cis-retinaldehyde and 9-cis-retinyl acetate were administered at low (10 μmoles) and high (15 μmoles) doses to LRAT−/− mice. Chromophore levels (as 9-cis-retinal oximes) were determined as described previously. See Van Hooser et at, J. Biol. Chem. 277:19173-182 (2002); Van Hooser et al., Proc. Natl. Acad. Sci. USA 97:8623-28 (2000); Maeda et al., J. Neurochem. 85:944-56 (2003). All reactions involving retinoids were carried out under dim red light.

[4] = test system: LRAT−/− mice (LCA mouse model); assay: Retinoids in eyes of gavaged LRAT−/− mice, analyzed by HPLC (Example 1); assay type: in vivo
Method: […]. HPLC chromatogram showing retinoid elution in treated and control mice eye and liver tissue. FIG. 1A. Eyes from dark adapted LRAT−/− mouse. FIG. 1B. Eyes from dark-adapted LRAT−/− mouse gavaged with 5 mg all-trans-retinyl palmitate 2 days prior. FIG. 1C. Eyes from dark-adapted LRAT−/− mouse gavaged with 5 mg all-trans-retinyl acetate 2 days prior. FIG. 1D. Eyes from dark-adapted LRAT−/− mouse gavaged with 6.5 mg 9-cis-retinyl acetate 3 days prior. FIG. 1E. Liver tissue from dark adapted LRAT−/− mouse. FIG. 1F. Liver tissue from dark-adapted LRAT−/− mouse gavaged with 5 mg all-trans-retinyl palmitate 2 days prior. FIG. 1G. Liver tissue from dark-adapted LRAT−/− mouse gavaged with 5 mg all-trans-retinyl acetate 2 days prior. FIG. 1H. Liver tissue from dark-adapted LRAT−/− mouse gavaged with 6.5 mg 9-cis-retinyl acetate 3 days prior.
9-cis-retinyl ester restores visual pigment in an LCA mouse model. LRAT−/− mice were gavaged with all-trans-retinyl palmitate, all-trans-retinyl acetate or 9-cis-retinyl acetate as indicated in the legend to FIG. 1A-1H. Following treatment, retinoids were extracted from the eye and liver, and analyzed by HPLC. […] 9-cis-retinyl ester restores visual pigment in approximately 5 hr (FIG. 2), while excess of retinoid is removed and metabolized (as illustrated for 9-cis-retinol).

Structure (SMILES)	restoration of chromophore levels (as all-trans-retinal oximes or 9-cis-retinal oximes) (Lrat−/− mice [1])	maximal level of isorhodopsin (as 9-cis-retinal oximes) (Lrat−/− mice [2]; Lrat−/− mouse eyes after 10 gavages, FIG. 5b)	dose at which levels of 9-cis-RAL per eye leveled off (Lrat−/− mice [2]; single varying dose by oral gavage in canola oil, measured after 3 days, FIG. 5a) [µmol]	restoration of chromophore levels (as 9-cis-retinal oximes), compared with 9-cis-retinaldehyde (Lrat−/− mice [3])	presence of syn-9-cis-retinal oxime in eyes (formation of the chromophore) ([4]; dark-adapted LRAT−/− mouse gavaged with 6.5 mg 3 days prior, FIG. 1D)	time in which visual pigment is restored ([4]; eye 9-cis-retinal oximes time course, FIG. 2)
CC1=C(/C=C/C(C)=C\C=C\C(C)=C\COC(=O)CCC(=O)O)C(C)(C)CCC1 [9-cis-retinyl succinate]	restored chromophore levels	–	–	–	–	–
CC(=O)OC/C=C(C)/C=C/C=C(C)\C=C\C1=C(C)CCCC1(C)C [9-cis-retinyl acetate]	–	comparable to the level of rhodopsin in wildtype (WT) mice	4 to 6	more efficiently restores chromophore levels than 9-cis-retinaldehyde	restored the presence of syn-9-cis-retinal oxime	approximately 5 hr
